Values after ≈ are worked out from the molar mass of the structure shown. Read-outs that look alike come from different tables or passages of the source.
How the values were obtained:
[1] = tested on: nine gram-positive organisms and the yeast/fungus Candida; assay: MIC, broth dilution, over all organisms (Examples I/II); format: cell-based
Procedure: (§1) In order to establish comparative bactericidal and fungicidal results with homologous fatty acids, a series of experiments was performed with thirty straight-chain fatty acids and derivatives thereof. Eight different gram-negative and twelve different gram-positive organisms, representing a very broad spectrum of organisms, were used in these experiments including the fungus Candida (a yeast). Additionally, fatty acids were chosen to show the effects of saturation versus unsaturation, in the fatty acid claim. Standard solutions of the fatty acids and their derivatives were prepared by first dissolving the weighed compounds in 1 to 2 ml of 95% ethanol and immediately pouring this solution into 200 ml of Tripticase Soy Broth. These lipid compounds which are insoluble in water and broth precipitated into very small crystals or droplets. The tubes containing the suspension were warmed to approximately 70° C and were then placed in an ultrasonic tank for further solubilization of the lipid derivatives.
(§2) Standard solutions (or suspensions) at 1,000 μg/ml were twofold serially diluted with additional broth to a concentration of 125 μg/ml. A 4-ml amount of each dilution was then quickly, and with constant agitation, dispensed into appropriately labeled screw-capped glass tubes (16 by 125 mm). The tubes were sterilized with steam at 15 psi for 15 minutes. After sterilization, all tubes were cooled and incubated overnight at 35° C to insure sterility.
(§3) All compounds were compared on a molar (micromoles/milliliter) rather than on a mass basis. In the following lists of organisms used, those followed by a parenthetical number are registered with the American Type Culture Collection (ATCC); the remainder were isolates from Providence Hospital or Northland Laboratory.
Staphylococcus aureus, S. epidermidis, beta-hemolytic streptococci (Group A and non-group A), group D streptococcus, Bacillus subtilis (6051), Sarcina lutea (9431), Micrococcus sp., Candida albicans, Nocardia asteroids (3308), Corynebacterium sp. (10700), and pneumococcus (63001).
(§4) One drop (0.04 ± 0.01 ml) of an 18-hr broth culture containing 10^7 and 10^9 organisms/ml was added to each dilution of the test compound, as well as to a tube of plain broth which served as the positive control. After inoculation, the contents of each tube were well mixed, and the tubes were incubated at 35° C in a 5% carbon dioxide + […] atmosphere.
(§5) The MIC is defined as the lowest concentration of compound at which no […] evidence of growth was observed when turbidity of the inoculated broth dilutions was compared with control tubes. […] Only a one-tube difference between the bactericidal and bacteriostatic concentrations was normally observed.
Table 5 presents a comparison of the C10 and C12 free acids and their glyceryl derivatives, and Table 6 gives the corresponding ranges of activity.
(§6) Standard solutions (1000 μg/ml) of three fatty acids and polyglycerol esters thereof were prepared as described in Example I. Also sucrose esters were prepared by transferring the weighed compounds (0.2 gm. dissolved in 1 ml absolute methanol) into 200 ml of sterile Trypticase Soy Broth (TSB). These standard solutions (1000 μg/ml) were twofold serially diluted with additional sterile broth to a concentration of 125 μg/ml. A 3.8 aliquot of each dilution was asceptically delivered into sterile screw-capped culture tubes. All tubes were incubated overnight at 36° C to insure sterility. The microorganisms used in this example were the same as those used in Example I.
The inoculum, 0.05 ml of an 13-24 hour TSB culture (approximately 10^9 organisms/ml) was asceptically delivered into all dilutions of the compounds, mixed well, and incubated at 36° C. […]

[2] = tested on: S. pyogenes; assay: Growth curve by optical density (Example IV, FIG. 3); format: cell-based, streptococcus pyogenes; conditions: 24 hours
Procedure: To a series of containers is added 40 ml of Trypticase Soy Broth and 0.5 ml of streptococcus pyogenes (10^8 organisms/ml). To respective containers are added the following: (1) 10 μg of glycerol 1-mono-laurinand 10 μg of glycerol dilaurin; (2) 5 μg of glycerol 1-mono-laurin and 5 μg of glycerol dilaurin; (3) 10 μg of glycerol 1-mono-laurin; and (4) 5 μg of glycerol 1-mono-laurin; and (5) a control without any additives. The rate of growth of the S. pyogenes was followed for 24 hours at 6 hour intervals by reading the optical density of the cultures at […] in a spectrophotometer.

[3] = tested on: Pseudomonas aeruginosa; assay: MIC, agar dilution method (Example XVI); format: cell-based; conditions: Pseudomonas aeruginosa
From the text: (§7) In a manner similar to that described in Example V, the effectiveness of certain food-grade microbecides are compared with mono-esters in an agar dilution method. The very favorable results may be noted from Table 19.

[4] = tested on: Bacillus subtilis; assay: MIC, agar dilution method (Example XVI); format: cell-based; conditions: Bacillus subtilis
From the text: as §7

[5] = tested on: Aspergillus niger; assay: MIC, agar dilution method (Example XVI); format: cell-based; conditions: Aspergillus niger
From the text: as §7

[6] = tested on: Escherichia coli; assay: MIC, agar dilution method (Example XVI); format: cell-based; conditions: Escherichia coli
From the text: as §7

[7] = tested on: Staphylococcus aureus; assay: MIC, agar dilution method (Example XVI); format: cell-based; conditions: Staphylococcus aureus
From the text: as §7

[8] = tested on: Canadida albicans; assay: MIC, agar dilution method (Example XVI); format: cell-based
From the text: as §7

[9] = tested on: Nocardia asteroides; assay: MIC, broth dilution (Examples I/II); format: cell-based, Nocardia asteroids (3308)
Procedure: as §1, §2, §3, §4, §5, §6
(§8) The inoculum, 0.05 ml of an 13-24 hour TSB culture (approximately 10^9 organisms/ml) was asceptically delivered into all dilutions of the compounds, mixed well, and incubated at 36° C. A tube of inoculated broth without the compound served as a positive control and an uninoculated set of dilutions incubated along with the test dilutions, served as a negative control.
(§9) In those cases in which the test compound itself caused turbidity, an aliquot (0.015 ml) of the mixed broth was inoculated onto an agar plate and incubated at 36° C for examination, as described in Example I. The control procedure of Example I was also repeated. The lauric, capric, and oleic acids were used as internal controls and for comparison to Example I. The minimal inhibitory concentrations (μmole/ml) for the compounds studied are given in Tables 7 and 8.

[10] = tested on: Corynebacteria; assay: MIC, broth dilution (Examples I/II); format: cell-based, Corynebacterium sp. (10700)
Procedure: as §1, §2, §3, §4, §5, §6, §8, §9

[11] = tested on: Micrococci; assay: MIC, broth dilution (Examples I/II); format: cell-based, Micrococcus sp.
Procedure: as §1, §2, §3, §4, §5, §6, §8, §9

[12] = tested on: S. aureus; assay: MIC, broth dilution (Examples I/II); format: cell-based, Staphylococcus aureus
Procedure: as §1, §2, §3
One drop (0.04 ± 0.01 ml) of an 18-hr broth culture containing 10^7 and 10^9 organisms/ml was added to each dilution of the test compound, as well as to a tube of plain broth which served as the positive control. […]

[13] = tested on: Streptococcus Group A; assay: MIC, broth dilution (Examples I/II); format: cell-based, beta-hemolytic streptococci Group A
Outline: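 MIC values were determined in TSB tube dilutions, 1,000 down to 125 μg/ml, using sonicated lipid suspensions and ~10^9 organisms/ml inocula incubated at 35–36° C, partly under 5% CO2. Growth absence was judged by turbidity or agar subculture, with results converted to μmol/ml.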

[14] = tested on: Streptococcus β-hemolytic Non-A; assay: MIC, broth dilution (Examples I/II); format: cell-based, beta-hemolytic streptococci non-group A
Procedure: as §1, §2, §3, §4, §5, §6, §8, §9

[15] = tested on: Pneumococci; assay: MIC, broth dilution (Examples I/II); format: cell-based, pneumococcus (63001); conditions: Table 1, Pneumococci
Procedure: as §1, §2, §3, §4, §5, §6, §8, §9

[16] = tested on: Saccharomyces cerevisiae; assay: MIC, broth dilution (Example II); format: cell-based; conditions: 18 h, read-out: Inhibitory concentration
Procedure: as §6, §8
In those cases in which the test compound itself caused turbidity, an aliquot (0.015 ml) of the mixed broth was inoculated onto an agar plate and incubated at 36° C for examination, as described in Example I. The control procedure of Example I was also repeated. […]

[17] = tested on: E. coli; assay: MIC, broth dilution (Example II); format: cell-based, Escherichia coli
Procedure: Proteus vulgaris, P. mirabilis (14273), P. rettgeri (9250), Escherichia coli, Serratia marcescens (13880), Enterobacter-Klebsiella, Pseudomonas aeruginosa (10145), and Salmonella typhimurium.
as §6
The inoculum, 0.05 ml of an 13-24 hour TSB culture (approximately 10^9 organisms/ml) was asceptically delivered into all dilutions of the compounds, mixed well, and incubated at 36° C. A tube of inoculated broth without the compound served as a positive control and an uninoculated set of dilutions incubated along with the test dilutions, served as a negative control. […]

[18] = tested on: Streptococcus Group D; assay: MIC, broth dilution (Examples I/II); format: cell-based; conditions: for MIC: Table 7, Strep. Grp. D, > = no inhibition, max. tested
Procedure: as §1, §2, §3, §4, §5, §6, §8, §9

[19] = tested on: gram-positive organisms; assay: Inhibition, broth dilution (Example I); format: cell-based; conditions: read-out: Inhibitory concentration
Procedure: as §1
(§10) Standard solutions (or suspensions) at 1,000 μg/ml were twofold serially diluted with additional broth to a concentration of 125 μg/ml. A 4-ml amount of each dilution was then quickly, and with constant agitation, dispensed into appropriately labeled screw-capped glass tubes (16 by 125 mm). The tubes were sterilized with steam at 15 psi for 15 minutes. […]

[20] = tested on: gram-negative organisms; assay: Inhibition, broth dilution (Example I); format: cell-based
Procedure: as §1, §10

[21] = tested on: S. epidermidis; assay: MIC, broth dilution (Examples I/II); format: cell-based; conditions: Table 7, Staph epider.; > = no inhibition, max. tested
Procedure: as §1, §2, §3, §4, §5, §6, §8, §9

[22] = tested on: Sarcina; assay: MIC, broth dilution (Examples I/II); format: cell-based, Sarcina lutea (9431); conditions: Table 7, Sarcina; > = no inhibition, max. tested
Procedure: as §1, §2, §3, §4, §5, §6, §8, §9

Molecule | MIC [18] [µM] | MIC [21] [µM] | MIC ([10]; Table 7, Cornebacteria) [µM] | MIC [22] [µM] | MIC ([11]; Table 7, Micrococci) [µM] | MIC ([13]; Table 7, Strep. Grp. A) [µM] | MIC ([14]; Table 7, Strep. β-hemo. Non-A) [µM] | other results
CCCCCCCCCCCC(=O)OCC(O)CO (stereo not shown) [1-mono-laurin] |  |  |  |  |  |  |  | Activity relative to 2-mono-laurin [1]: as active as the 2-mono-laurin; Activity in words ([1]; Table 6 footnote): Highly active on all organisms except streptococcus Group D; Antimicrobial activity in words (growth curve) [2]: responsible for all antimicrobial activity; MIC [3]: > 2500 mg/L; MIC [4]: 39 mg/L (≈ 0.142 mM); MIC [5]: > 2500 mg/L; MIC [6]: > 2500 mg/L; MIC [7]: 39 mg/L (≈ 0.142 mM); MIC [8]: > 2500 mg/L
CC/C=C\C/C=C\C/C=C\CCCCCCCC(=O)O [Linolenic] |  |  |  |  |  |  |  | MIC ([9]; Table 1, Nocardia asteroides): 488 µM (≈ 136 µg/mL); MIC ([10]; Table 1, Corynebacteria): 179 µM (≈ 49.8 µg/mL); MIC ([11]; Table 1, Micrococci): 488 µM (≈ 136 µg/mL); MIC ([12]; Table 1, S. aureus): 1790 µM (≈ 498 µg/mL); MIC ([13]; Table 1, Streptococcus Group A): 350 µM (≈ 97.5 µg/mL); MIC ([14]; Table 1, Streptococcus β-hemolytic Non-A): 350 µM (≈ 97.5 µg/mL); MIC [15]: 179 µM (≈ 49.8 µg/mL)
CCCCCCCCCCC(O)C(=O)OC (stereo not drawn) [Methyl, α-hydroxylaurate] |  |  |  |  |  |  |  | MIC [16]: 540 µM (≈ 124 µg/mL); Inhibition in words [17]: Neither compound was inhibitory; Inhibition in words ([18]; Group D Strep): Neither compound was inhibitory; MIC ([9]; Nocardia asteroides, read-out: Inhibitory concentration): 4340 µM (≈ 1000 µg/mL); MIC ([12]; Staphylococcus aureus, S. aureus, read-out: Inhibitory concentration): 540 µM (≈ 124 µg/mL); MIC ([13]; Group A Strep, read-out: Inhibitory concentration): 540 µM (≈ 124 µg/mL)
CCCCCCCCCCCCOS(=O)(=O)[O-].[Na+] [sodium lauryl sulfate] |  |  |  |  |  |  |  | MIC [19]: 3470 µM; Inhibition in words [20]: non-inhibitory
Decaglycerol monolaurate | > 1060 | > 1060 | 530 | > 1060 | 530 | 260 | 530 | 
Hexaglycerol monocaprate | > 1580 | > 1580 | 390 | > 1580 | 790 | 190 | 790 | 
Hexaglycerol monolaurate | > 1520 | > 1520 | 380 | > 1520 | 380 | 190 | 380 | 
Triglycerol monocaprate | > 2500 | > 2500 | 320 | 2500 | 1260 | 150 | 630 | MIC ([12]; Table 7, Staph aureus, > = no inhibition, max. tested): > 2500 µM
Triglycerol monolaurate | > 2360 | > 2360 | 240 | 1180 | 290 | 290 | 590 | 
glycerol dilaurin |  |  |  |  |  |  |  | Antimicrobial activity in words (growth curve) [2]: essentially inactive

From patent US4067997A, “Synergistic microbecidal composition and method” (priority 1976, dated 1978)
